Results from ChEMBL document CHEMBL1154496, “The pharmacophore of a peptoid VEGF receptor 2 antagonist includes both side chain and main chain residues” (Bioorg Med Chem Lett, 2008).
Active and inactive are the calls of the source. No cut-off for these calls is given here. Square brackets hold non-standard residues; d marks the D form. Peptide text beside a SMILES is read from it. * marks the point of attachment. ξ: configuration not given here. X1 = O=C(O)c1cc(N2C(=O)CC(*)C2=O)ccc1-c1c2ccc(=O)cc-2oc2cc(O)ccc12; Gly(N-piperonyl) = O=C(O)CNCc1ccc2c(c1)OCO2; Nrpe = C[C@@H](NCC(=O)O)c1ccccc1; Nleu = CC(C)CNCC(=O)O; Nlys = NCCCCNCC(=O)O; ξC = NC(CS)C(=O)O

Target: Vascular endothelial growth factor receptor 2 (Homo sapiens) (UniProt P35968)
Assay: Binding affinity to VEGFR2 extracellular domain

Vascular endothelial growth factor receptor 2 (Homo sapiens), sequence (P35968 whole entry, the tested form may be a part): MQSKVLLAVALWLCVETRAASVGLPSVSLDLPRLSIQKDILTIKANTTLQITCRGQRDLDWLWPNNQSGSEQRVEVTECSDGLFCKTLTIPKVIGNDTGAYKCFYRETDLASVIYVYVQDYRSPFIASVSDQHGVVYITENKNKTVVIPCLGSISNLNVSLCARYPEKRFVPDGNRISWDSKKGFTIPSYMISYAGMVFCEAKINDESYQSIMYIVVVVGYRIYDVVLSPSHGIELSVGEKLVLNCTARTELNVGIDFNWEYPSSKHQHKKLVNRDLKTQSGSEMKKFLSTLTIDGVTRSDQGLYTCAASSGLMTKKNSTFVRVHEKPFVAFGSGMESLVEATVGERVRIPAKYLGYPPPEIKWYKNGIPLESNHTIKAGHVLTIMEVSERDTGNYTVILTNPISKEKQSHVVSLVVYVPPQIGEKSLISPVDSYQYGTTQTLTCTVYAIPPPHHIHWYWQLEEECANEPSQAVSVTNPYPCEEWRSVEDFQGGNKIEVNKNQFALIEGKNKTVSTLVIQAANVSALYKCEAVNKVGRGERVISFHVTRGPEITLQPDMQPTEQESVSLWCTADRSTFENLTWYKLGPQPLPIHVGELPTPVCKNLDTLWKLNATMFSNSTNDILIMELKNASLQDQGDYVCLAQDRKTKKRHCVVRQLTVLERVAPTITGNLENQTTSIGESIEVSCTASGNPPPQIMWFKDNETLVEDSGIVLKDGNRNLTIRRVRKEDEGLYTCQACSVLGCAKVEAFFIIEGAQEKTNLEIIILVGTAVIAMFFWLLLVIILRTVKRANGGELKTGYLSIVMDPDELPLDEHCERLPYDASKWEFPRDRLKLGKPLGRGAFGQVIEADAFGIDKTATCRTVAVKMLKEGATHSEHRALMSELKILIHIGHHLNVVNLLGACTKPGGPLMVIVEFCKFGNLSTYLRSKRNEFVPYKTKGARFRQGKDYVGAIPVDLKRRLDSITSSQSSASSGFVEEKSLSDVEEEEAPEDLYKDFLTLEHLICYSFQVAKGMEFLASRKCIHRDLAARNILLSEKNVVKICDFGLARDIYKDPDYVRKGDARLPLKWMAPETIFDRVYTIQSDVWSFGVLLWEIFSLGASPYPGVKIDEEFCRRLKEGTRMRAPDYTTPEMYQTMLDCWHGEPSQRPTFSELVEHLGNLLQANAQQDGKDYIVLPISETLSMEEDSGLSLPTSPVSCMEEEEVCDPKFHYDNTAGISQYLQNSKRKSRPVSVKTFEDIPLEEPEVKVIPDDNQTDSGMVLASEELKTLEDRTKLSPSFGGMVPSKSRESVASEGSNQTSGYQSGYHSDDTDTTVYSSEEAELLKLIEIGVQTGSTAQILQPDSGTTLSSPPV

| Activity | Compound |
| --- | --- |
| Active | CC(C)CN(CC(=O)N(CCCCN)CC(=O)N(CC(=O)NCC(=O)NCC(=O)NCC(=O)NCC(=O)NCC(=O)NC(CSC1CC(=O)N(c2ccc(-c3c4ccc(=O)cc-4oc4cc(O)ccc34)c(C(=O)O)c2)C1=O)C(N)=O)[C@H](C)c1ccccc1)C(=O)CN (stereo partly drawn) (H-G[Nleu][Nlys][Nrpe]GGGGG[ξC](X1)-NH2) |
| inactive | CC(C)CN(CC(=O)N(CCCCN)CC(=O)N(CC(=O)NC(CSC1CC(=O)N(c2ccc(-c3c4ccc(=O)cc-4oc4cc(O)ccc34)c(C(=O)O)c2)C1=O)C(N)=O)[C@H](C)c1ccccc1)C(=O)CN (stereo partly drawn) (H-G[Nleu][Nlys][Nrpe][ξC](X1)-NH2) |
| Active | CC(C)CN(CC(=O)N(CCCCN)CC(=O)N(CC(=O)N(CC(=O)N(CCCCN)CC(=O)N(CC(=O)N(CCCCN)CC(=O)N(CCCCN)CC(N)=O)CC(C)C)Cc1ccc2c(c1)OCO2)[C@H](C)c1ccccc1)C(=O)CNCCCCN (H-[Nlys][Nleu][Nlys][Nrpe][Gly(N-piperonyl)][Nlys][Nleu][Nlys][Nlys]-NH2) |
